Data on 9 molecules can be found in US11866414B2, “Substituted heterocyclic compounds” (BRISTOL-MYERS SQUIBB COMPANY, priority 2021, dated 2024).

In data set [1] the test system is Caco-2 cells. The conditions noted are these: human, Caco-2, 2 h, 3 μM, pH 7.4.
The nature of data set [2]: Brain penetration in vivo assay (brain and plasma exposure). How it is done: Brain Penetration In Vivo Assay
A pharmacokinetic study was performed using C57BL6 wild-type mice (n=3 per experiment) to determine brain and plasma exposure of compounds of the invention. The compound was administered orally in a solution of 5% ETHANOL: 90% PEG 300; 5% TPGS at 5 mL/kg for a final concentration of 10 mg/kg. Nice were euthanized 1 hour post-dose and plasma and brain were collected and frozen for analysis. Brain tissues were homogenized in a 1:1 volume of blank C57BL6 mouse plasma. Concentrations of the compound in plasma and brain homogenate were determined by LC-MS analysis.

Data set [3] concerns Caco-2 cells. The experiment in a line: Bidirectional permeability assay in Caco-2 cells. The conditions noted are these: for Efflux Ratio: Caco-2, 3 μM, pH 7.4, 2 hours; for CACO2 (A-B): permeability coefficient apical-to-basolateral, 3 μM, pH 7.4, 0.5% BSA, 2 hours, 37° C. On the technique in general: Passage across Caco-2 layers is used to estimate intestinal permeability.

Like-named read-outs stand apart in the source and are kept apart here.

In the case of `[2H]C([2H])([2H])NC(=O)c1nnc(NC(=O)C2CC2)cc1Nc1cccc(-c2cnn(CC(F)F)n2)c1OC` [Example 3, 6-cyclopropaneamido-4-({3-[2-(2,2-difluoroethyl)-2H-1,2,3-triazol-4-yl]-2-methoxyphenyl}amino)-N—(^2H3)methylpyridazine-3-carboxamide], the “CACO2 (A-B)” value in data set [1] is 368 nm/s. Besides, in data set [2], the “Ratio of exposure in brain to plasma (mouse) (1 h, 10 mpk, po)” value (from here on “Ratio of exposure in brain to plasma”) was 0.3. Turning to `[2H]C([2H])([2H])NC(=O)c1nnc(NC(=O)C2CC2)cc1Nc1ccc(F)c(-c2cnn(CC)n2)c1OC` [Example 10, 6-cyclopropaneamido-4-{[3-(2-ethyl-2H-1,2,3-triazol-4-yl)-4-fluoro-2-methoxyphenyl]amino}-N—(^2H3)methylpyridazine-3-carboxamide], in data set [1], the “CACO2 (A-B)” value is 340 nm/s. For the same molecule, in data set [2], the “Ratio of exposure in brain to plasma” value is listed as 0.1.

`[2H]C([2H])([2H])NC(=O)c1nnc(NC(=O)C2CC2)cc1Nc1cc(F)cc(-c2cnn(C3CC3)n2)c1OC` [Example 12, 6-cyclopropaneamido-4-{[3-(2-cyclopropyl-2H-1,2,3-triazol-4-yl)-5-fluoro-2-methoxyphenyl]amino}-N—(^2H3)methylpyridazine-3-carboxamide]: the “CACO2 (A-B)” value in data set [1] was 173 nm/s. Besides, the “Ratio of exposure in brain to plasma” value in data set [2] turned out to be 0.7. For `[2H]C([2H])([2H])NC(=O)c1nnc(NC(=O)C2CC2)cc1Nc1nccc(-c2cnn(C3CC3)n2)c1OC` [Example 14, 6-cyclopropaneamido-4-{[4-(2-cyclopropyl-2H-1,2,3-triazol-4-yl)-3-methoxypyridin-2-yl]amino}-N—(^2H3)methylpyridazine-3-carboxamide] the same measures were 446 nm/s and 0.8.

Consider `[2H]C([2H])([2H])NC(=O)c1nnc(NC(=O)N2CCC2)cc1Nc1cccc(-c2cnn(C)n2)c1OC` [Example 51, 6-[(azetidine-1-carbonyl)amino]-4-{[2-methoxy-3-(2-methyl-2H-1,2,3-triazol-4-yl)phenyl]amino}-N—(^2H3)methylpyridazine-3-carboxamide], for which, in data set [3], the “Efflux Ratio” value is on record as 0.9 and the “CACO2 (A-B)” value came out at 429 nm/s. On to `[2H]C([2H])([2H])NC(=O)c1nnc(NC(=O)C2CC2)cc1Nc1cccc(-c2cnn(C3COC3)n2)c1OC` [Example 53, 6-cyclopropaneamido-4-({2-methoxy-3-[2-(oxetan-3-yl)-2H-1,2,3-triazol-4-yl]phenyl}amino)-N—(^2H3)methylpyridazine-3-carboxamide], for which, in data set [3], the “Efflux Ratio” value is recorded as 0.7 and the “CACO2 (A-B)” value came to 425 nm/s. In the case of `[2H]C([2H])([2H])NC(=O)c1nnc(NC(=O)C2CC2)cc1Nc1cccc(-c2cnn(C)n2)c1OC(F)F` [Example 56, 6-cyclopropaneamido-4-{[2-(difluoromethoxy)-3-(2-methyl-2H-1,2,3-triazol-4-yl)phenyl]amino}-N—(^2H3)methylpyridazine-3-carboxamide], the “CACO2 (A-B)” value in data set [1] was found to be 432 nm/s. For the molecule `[2H]C([2H])([2H])NC(=O)c1nnc(NC(=O)N(C)CC)cc1Nc1nccc(-c2cnn(C)n2)c1OC` [Example 58, 6-{[ethyl(methyl)carbamoyl]amino}-4-{[3-methoxy-4-(2-methyl-2H-1,2,3-triazol-4-yl)pyridin-2-yl]amino}-N—(^2H3)methylpyridazine-3-carboxamide], in data set [3], the “Efflux Ratio” value came out at 0.6 and the “CACO2 (A-B)” value is listed as 314 nm/s. On to `[2H]C([2H])([2H])NC(=O)c1nnc(NC(=O)C2CC2)cc1Nc1nccc(-c2cnn(C)n2)c1OC(F)F` [Example 60, 6-cyclopropaneamido-4-{[3-(difluoromethoxy)-4-(2-methyl-2H-1,2,3-triazol-4-yl)pyridin-2-yl]amino}-N—(^2H3)methylpyridazine-3-carboxamide], for which the “CACO2 (A-B)” value in data set [1] came out at 340 nm/s.
